Results on five compounds are retold here after the NIST ThermoML archive (doi:10.1016/j.jct.2019.07.013).

Numbers after ± are expanded uncertainties.

One may read the mass density as mass per unit of volume.

The conditions of this series: for mass density: 100 kPa, Vibrating tube method; for mass density / electrical conductivity: Liquid; for electrical conductivity: 101.33 kPa, Direct current cell with electrodes; for Glass transition temperature: DSC.

With `C=CCCn1cc[n+](C)c1.[Br-]` [1-(3-butenyl)-3-methylimidazolium bromide], the Glass transition temperature is -49.60 ± 1.2 °C. The mass density (283.15 K) is 1354.24 ± 15 kg/m3. Also, the mass density (288.15 K) worked out at 1350.42 ± 15 kg/m3. Besides, under “293.15 K”, the mass density is listed as 1346.67 ± 14 kg/m3 and the electrical conductivity was determined as 0.0126 ± 0.00089 S/m. Besides, for the setting “298.15 K”, the mass density is given as 1343.07 ± 14 kg/m3 and the electrical conductivity is 0.0214 ± 0.0015 S/m. Besides, under “303.15 K”, the mass density is on record as 1339.41 ± 14 kg/m3 and the electrical conductivity came to 0.0343 ± 0.0024 S/m. Also, for the setting “308.15 K”, the mass density is recorded as 1335.7 ± 14 kg/m3 and the electrical conductivity was 0.0522 ± 0.0037 S/m. In addition, for the setting “313.15 K”, the mass density was 1331.9 ± 14 kg/m3 and the electrical conductivity was 0.0772 ± 0.0054 S/m. Moreover, where the note is “318.15 K”, the mass density was 1328.14 ± 14 kg/m3 and the electrical conductivity worked out at 0.116 ± 0.0081 S/m. For the setting “323.15 K”, the mass density turned out to be 1324.34 ± 14 kg/m3 and the electrical conductivity is 0.162 ± 0.011 S/m.

Regarding `C=CCCn1cc[n+](CC)c1.[Br-]` [1-(3-butenyl)-3-ethylimidazolium bromide], the Glass transition temperature is -63.48 ± 1.2 °C. Besides, the mass density (283.15 K) came to 1305.11 ± 5.7 kg/m3. In addition, the mass density (288.15 K) is recorded as 1301.34 ± 5.7 kg/m3. Moreover, for the setting “293.15 K”, the mass density turned out to be 1297.64 ± 5.7 kg/m3 and the electrical conductivity came out at 0.014 ± 0.00098 S/m. Moreover, where the note is “298.15 K”, the mass density was determined as 1294.11 ± 5.6 kg/m3 and the electrical conductivity was determined as 0.0226 ± 0.0016 S/m. Besides, for the setting “303.15 K”, the mass density worked out at 1290.54 ± 5.6 kg/m3 and the electrical conductivity stood at 0.0353 ± 0.0025 S/m. Also, for the setting “308.15 K”, the mass density stood at 1286.92 ± 5.6 kg/m3 and the electrical conductivity was found to be 0.0524 ± 0.0037 S/m. For the setting “313.15 K”, the mass density is listed as 1283.26 ± 5.6 kg/m3 and the electrical conductivity came out at 0.0747 ± 0.0052 S/m. Also, for the setting “318.15 K”, the mass density was 1279.57 ± 5.6 kg/m3 and the electrical conductivity came out at 0.12 ± 0.0084 S/m. In addition, under “323.15 K”, the mass density is reported as 1275.88 ± 5.6 kg/m3 and the electrical conductivity turned out to be 0.162 ± 0.011 S/m. Also, the Normal melting temperature (Crystal, DTA) was 70.68 ± 1.1 °C.

Take `CCCCCC[n+]1ccn(C)c1.O=S(=O)([N-]S(=O)(=O)C(F)(F)F)C(F)(F)F`: the mass density (283.15 K) turned out to be 1386 ± 5 kg/m3; the mass density (288.15 K) came out at 1381.41 ± 5 kg/m3; the mass density (293.15 K) stood at 1376.82 ± 5 kg/m3; the mass density (298.15 K) came out at 1371.8 ± 5 kg/m3; the mass density (303.15 K) is on record as 1367.65 ± 5 kg/m3; the mass density (308.15 K) amounted to 1363.1 ± 5 kg/m3. Besides, the mass density stood at 1357.5 ± 5 kg/m3 (313.15 K), 1352.61 ± 5 kg/m3 (318.15 K) and 1349.44 ± 5 kg/m3 (323.15 K).

Regarding `C=CCCn1cc[n+](CCCC)c1.[Br-]` [1-(3-butenyl)-3-butylimidazolium bromide], the Glass transition temperature is -49.00 ± 1.2 °C. Also, the mass density (283.15 K) amounted to 1229.25 ± 6.8 kg/m3. In addition, the mass density (288.15 K) turned out to be 1225.9 ± 6.7 kg/m3. In addition, where the note is “293.15 K”, the mass density is 1222.43 ± 6.7 kg/m3 and the electrical conductivity amounted to 0.00255 ± 0.00018 S/m. For the same compound, where the note is “298.15 K”, the mass density came out at 1218.74 ± 6.7 kg/m3 and the electrical conductivity is 0.00445 ± 0.00031 S/m. In addition, where the note is “303.15 K”, the mass density came out at 1214.96 ± 6.7 kg/m3 and the electrical conductivity worked out at 0.00733 ± 0.00051 S/m. Also, for the setting “308.15 K”, the mass density came to 1211.48 ± 6.7 kg/m3 and the electrical conductivity was 0.0114 ± 0.0008 S/m. For the setting “313.15 K”, the mass density amounted to 1207.96 ± 6.6 kg/m3 and the electrical conductivity came to 0.0175 ± 0.0012 S/m. Moreover, where the note is “318.15 K”, the mass density came out at 1204.4 ± 6.6 kg/m3 and the electrical conductivity came out at 0.0256 ± 0.0018 S/m. Besides, under “323.15 K”, the mass density came to 1200.81 ± 6.6 kg/m3 and the electrical conductivity worked out at 0.0366 ± 0.0026 S/m.

As for `O` [water], the mass density was 999.7 ± 0.05 kg/m3 (283.15 K); 999.05 ± 0.05 kg/m3 (288.15 K); 992.31 ± 0.06 kg/m3 (313.15 K); 990.42 ± 0.06 kg/m3 (318.15 K); 988.3 ± 0.06 kg/m3 (323.15 K).
